These results are taken from patent US20240317735A1, “HYDROISOQUINOLINE OR HYDRONAPHTHYRIDINE COMPOUNDS FOR THE TREATMENT OF AUTOIMMUNE DISEASE” (Hoffmann-La Roche Inc., priority 2020, published 2024).

For this data set, the target named is T1, hERG channel (Homo sapiens, UniProt Q12809).
T1 construct: expressed in transfected cells; host or cells: CHO (CHOhERG)
Put plainly: hERG channel inhibition assay (patch-clamp, CHOhERG cells). It counts as cell-based. The following applies: for IC50 / IC20: CHOhERG cells, whole-cell patch-clamp; for IC20: human, CHO cells stably expressing hERG (CHOhERG); for hERG IC20/TLR7 IC50 / hERG IC20/TLR8 IC50 / hERG IC20/TLR9 IC50: safety ratio; for hERG IC20/TLR7 IC50: hERG IC20 over HEK/hTLR7 IC50; for hERG IC20/TLR8 IC50: hERG IC20 over HEK/hTLR8 IC50; for hERG IC20/TLR9 IC50: hERG IC20 over HEK/hTLR9 IC50. On the procedure: The hERG K^+ channels were cloned in humans and stably expressed in a CHO (Chinese hamster ovary) cell line. CHOhERG cells were used for patch-clamp (voltage-clamp, whole-cell) experiments. Cells were stimulated by a voltage pattern to activate hERG channels and conduct IKhERG currents (rapid delayed outward rectifier potassium current of the hERG channel). After the cells were stabilized for a few minutes, the amplitude and kinetics of IKhERG were recorded at a stimulation frequency of 0.1 Hz (6 bpm). Thereafter, the test compound was added to the preparation at increasing concentrations. For each concentration, an attempt was made to reach a steady-state effect, usually, this was achieved within 3-10 min at which time the next highest concentration was applied. The amplitude and kinetics of IKhERG are recorded in each concentration of the drug which were compared to the control values (taken as 100%). (references: Redfern W S, Carlsson L, Davis A S, Lynch W G, MacKenzie I, Palethorpe S, Siegl P K, Strang I, Sullivan A T, Wallis R, Camm A J, Hammond T G. 2003; Relationships between preclinical cardiac electrophysiology, clinical QT interval prolongation and torsade de pointes for a broad range of drugs: evidence for a provisional safety margin in drug development. Cardiovasc. Res. 58:32-45, Sanguinetti MC, Tristani-Firouzi M. 2006; hERG potassium channels and cardiac arrhythmia. Nature 440:463-469, Webster R, Leishman D, Walker D. 2002; Towards a drug concentration effect relationship for QT prolongation and torsades de pointes. Curr. Opin. Drug Discov. Devel. 5:116-26).
On the technique in general: hERG is a cardiac potassium channel; its block is linked to QT prolongation.

A value given as a limit tells only on which side of the number the result lay.

T1 sequence (Q12809 whole entry): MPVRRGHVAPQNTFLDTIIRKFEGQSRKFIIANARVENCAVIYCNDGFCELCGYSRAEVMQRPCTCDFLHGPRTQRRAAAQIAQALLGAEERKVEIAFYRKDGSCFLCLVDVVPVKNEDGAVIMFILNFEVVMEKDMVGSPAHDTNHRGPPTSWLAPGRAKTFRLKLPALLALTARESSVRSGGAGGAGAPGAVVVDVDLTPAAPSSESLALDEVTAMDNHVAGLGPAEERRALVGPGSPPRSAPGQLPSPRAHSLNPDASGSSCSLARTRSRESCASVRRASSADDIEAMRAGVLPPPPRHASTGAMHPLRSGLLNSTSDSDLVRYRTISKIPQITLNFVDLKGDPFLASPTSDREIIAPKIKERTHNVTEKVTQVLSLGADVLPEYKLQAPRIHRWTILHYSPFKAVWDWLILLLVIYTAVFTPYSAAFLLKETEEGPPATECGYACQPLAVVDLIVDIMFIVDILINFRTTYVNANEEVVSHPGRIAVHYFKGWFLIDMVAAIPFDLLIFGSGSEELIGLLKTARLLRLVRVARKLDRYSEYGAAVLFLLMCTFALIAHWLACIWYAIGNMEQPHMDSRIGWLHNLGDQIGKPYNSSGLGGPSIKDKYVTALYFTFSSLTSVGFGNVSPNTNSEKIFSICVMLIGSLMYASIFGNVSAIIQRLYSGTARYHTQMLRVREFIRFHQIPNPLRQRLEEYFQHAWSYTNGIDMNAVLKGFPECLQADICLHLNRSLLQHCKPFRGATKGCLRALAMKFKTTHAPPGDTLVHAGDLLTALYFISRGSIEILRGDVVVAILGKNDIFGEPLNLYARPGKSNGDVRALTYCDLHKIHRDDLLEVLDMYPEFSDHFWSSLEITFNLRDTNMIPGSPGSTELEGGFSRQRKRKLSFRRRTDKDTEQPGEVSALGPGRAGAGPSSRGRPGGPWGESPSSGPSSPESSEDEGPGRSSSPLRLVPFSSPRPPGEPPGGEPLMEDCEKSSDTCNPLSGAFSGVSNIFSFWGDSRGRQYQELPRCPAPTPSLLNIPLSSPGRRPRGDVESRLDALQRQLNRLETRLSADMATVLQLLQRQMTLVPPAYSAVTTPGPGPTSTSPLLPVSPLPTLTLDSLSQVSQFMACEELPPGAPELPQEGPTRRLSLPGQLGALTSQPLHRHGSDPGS

In general, IC50 refers to the concentration at which inhibition is half-maximal. Read a high IC50 as lower potency. A word on the IC20: it is the point of the concentration-response curve where the effect stands at 20%. Low values mean greater potency, high ones weaker potency. `C[C@H]1CN(c2ccnc3c2cnn3C)Cc2ccc(N3C[C@@]4(CCNC4)CC3=O)cc21` (single isomer, unassigned) [Example 53]: the IC50 was above 20 µM, the IC20 is above 10 µM, the “hERG IC20/TLR7 IC50” value was above 555.6 and the “hERG IC20/TLR8 IC50” value was above 1666.7. In addition, the “hERG IC20/TLR9 IC50” value is above 47.6.

Regarding `C[C@H]1CN(c2ccnc3c2cnn3C)Cc2ccc(N3CC4(CCNCC4)CC3=O)cc21` [Example 16, 2-[(4R)-4-methyl-2-(1-methylpyrazolo[3,4-b]pyridin-4-yl)-3,4-dihydro-1H-isoquinolin-6-yl]-2,8-diazaspiro[4.5]decan-3-one], the IC50 was above 20 µM, the concentration for an effect of 20% (IC20) is above 10 µM, the “hERG IC20/TLR7 IC50” value is recorded as above 2000.0 and the “hERG IC20/TLR8 IC50” value is above 2500.0. The “hERG IC20/TLR9 IC50” value is given as above 158.7.

With `CO[C@@H]1CN(c2ccc3c(c2)[C@@H](C)CN(c2ccnc4c2cnn4C)C3)C[C@H]1N` [Example 20, (3R,4R)-4-methoxy-1-[(4R)-4-methyl-2-(1-methylpyrazolo[3,4-b]pyridin-4-yl)-3,4-dihydro-1H-isoquinolin-6-yl]pyrrolidin-3-amine], the IC50 was above 20 µM, the IC20 turned out to be 6.2 µM, the “hERG IC20/TLR7 IC50” value came out at 2066.7 and the “hERG IC20/TLR8 IC50” value stood at 364.7. For the same compound, the “hERG IC20/TLR9 IC50” value stood at 25.9.

On to `C[C@H]1CN(c2ccnc3c2cnn3C)Cc2ccc(N3CC4(CNCCO4)C3)cc21` [Example 21, 2-[(4R)-4-methyl-2-(1-methylpyrazolo[3,4-b]pyridin-4-yl)-3,4-dihydro-1H-isoquinolin-6-yl]-5-oxa-2,8-diazaspiro[3.5]nonane], for which the IC50 is above 20 µM, the concentration for an effect of 20% (IC20) was above 10 µM, the “hERG IC20/TLR7 IC50” value is above 1428.6 and the “hERG IC20/TLR8 IC50” value is listed as above 714.3. Also, the “hERG IC20/TLR9 IC50” value is given as above 26.9.

In the case of `C[C@H]1CN(c2ccnc3c2cnn3C)Cc2ccc(N3C[C@@H]4CNCCN4C3=O)cc21` [Example 25, (8aS)-2-[(4R)-4-methyl-2-(1-methylpyrazolo[3,4-b]pyridin-4-yl)-3,4-dihydro-1H-isoquinolin-6-yl]-1,5,6,7,8,8a-hexahydroimidazo[1,5-a]pyrazin-3-one], the IC50 was above 20 µM, the IC20 is above 10 µM, the “hERG IC20/TLR7 IC50” value is above 666.7 and the “hERG IC20/TLR8 IC50” value is above 33333.3. The “hERG IC20/TLR9 IC50” value was above 34.4.

With `Cc1cc(N2Cc3ccc(OC[C@H]4CNCCN4)cc3[C@@H](C)C2)c2cnn(C)c2n1` [Example 30, (4R)-2-(1,6-dimethylpyrazolo[3,4-b]pyridin-4-yl)-4-methyl-6-[[(2R)-piperazin-2-yl]methoxy]-3,4-dihydro-1H-isoquinoline], the IC50 is above 20 µM, the IC20 worked out at 6.5 µM, the “hERG IC20/TLR7 IC50” value came out at 175.7 and the “hERG IC20/TLR8 IC50” value turned out to be 3250.0. Also, the “hERG IC20/TLR9 IC50” value is given as 73.9.

With `C[C@H]1CN(c2ccnc3c2cnn3C)Cc2ccc(N3CC4(CNC4)CC3=O)cc21` [Example 34, 6-[(4R)-4-methyl-2-(1-methylpyrazolo[3,4-b]pyridin-4-yl)-3,4-dihydro-1H-isoquinolin-6-yl]-2,6-diazaspiro[3.4]octan-7-one], the IC50 is above 20 µM, the IC20 was above 10 µM, the “hERG IC20/TLR7 IC50” value is above 384.6 and the “hERG IC20/TLR8 IC50” value was above 384.6. Further, the “hERG IC20/TLR9 IC50” value is reported as above 50.5.

For the compound `C[C@H]1CN(c2ccnc3c2cnn3C)Cc2ccc(OCCN3CCNCC3)cc21` [Example 40, (4R)-4-methyl-2-(1-methylpyrazolo[3,4-b]pyridin-4-yl)-6-(2-piperazin-1-ylethoxy)-3,4-dihydro-1H-isoquinoline], the IC50 was above 20 µM, the IC20 is above 10 µM, the “hERG IC20/TLR7 IC50” value was above 1250.0 and the “hERG IC20/TLR8 IC50” value is above 1428.6. For the same compound, the “hERG IC20/TLR9 IC50” value is listed as above 30.7.

On to `C[C@H]1CN(c2ccnc3c2cnn3C)Cc2ccc(O[C@@H]3C[C@H]4CNCCN4C3)cc21` [Example 42, (4R)-4-methyl-2-(1-methylpyrazolo[3,4-b]pyridin-4-yl)-6-[[(7R,8aS)-1,2,3,4,6,7,8,8a-octahydropyrrolo[1,2-a]pyrazin-7-yl]oxy]-3,4-dihydro-1H-isoquinoline], for which the IC50 was above 20 µM, the IC20 was above 10 µM, the “hERG IC20/TLR7 IC50” value is on record as above 3333.3 and the “hERG IC20/TLR8 IC50” value was above 5000.0. In addition, the “hERG IC20/TLR9 IC50” value is given as above 25.1.

Consider `C[C@H]1CN(c2ccnc3c2cnn3C)Cc2ccc(OC[C@@H]3CNCCN3C)cc21` [Example 44, (4R)-4-methyl-2-(1-methylpyrazolo[3,4-b]pyridin-4-yl)-6-[[(2S)-1-methylpiperazin-2-yl]methoxy]-3,4-dihydro-1H-isoquinoline], for which the IC50 was above 20 µM, the IC20 was above 10 µM, the “hERG IC20/TLR7 IC50” value is above 666.7 and the “hERG IC20/TLR8 IC50” value is given as above 2000.0. In addition, the “hERG IC20/TLR9 IC50” value was above 42.7.

With `Cc1cc(N2Cc3cnc(O[C@@H]4C[C@H]5CNCCN5C4)cc3[C@@H](C)C2)c2cnn(C)c2n1` [Example 76, (4R)-2-(1,6-dimethylpyrazolo[3,4-b]pyridin-4-yl)-4-methyl-6-[[(7R,8aS)-1,2,3,4,6,7,8,8a-octahydropyrrolo[1,2-a]pyrazin-7-yl]oxy]-3,4-dihydro-1H-2,7-naphthyridine], the IC50 is above 20 µM, the IC20 was above 10 µM, the “hERG IC20/TLR7 IC50” value is reported as above 526.3 and the “hERG IC20/TLR8 IC50” value is recorded as above 625.0. Also, the “hERG IC20/TLR9 IC50” value is listed as above 69.4.

Regarding `Cc1cc(N2Cc3cnc(OCCN4CCNCC4)cc3[C@@H](C)C2)c2cnn(C)c2n1` [Example 77, (4R)-2-(1,6-dimethylpyrazolo[3,4-b]pyridin-4-yl)-4-methyl-6-(2-piperazin-1-ylethoxy)-3,4-dihydro-1H-2,7-naphthyridine], the IC50 was above 20 µM, the IC20 was above 10 µM, the “hERG IC20/TLR7 IC50” value was above 526.3 and the “hERG IC20/TLR8 IC50” value is listed as above 625.0. Also, the “hERG IC20/TLR9 IC50” value is listed as above 69.4.

`Cc1cc(N2Cc3cnc(N4CC[C@@H](N)[C@H](F)C4)cc3[C@@H](C)C2)c2cnn(C)c2n1` [Example 80, (3R,4R)-3-fluoro-1-[(5R)-7-(1,6-dimethylpyrazolo[3,4-b]pyridin-4-yl)-5-methyl-6,8-dihydro-5H-2,7-naphthyridin-3-yl]piperidin-4-amine]: the IC50 was above 20 µM, the IC20 was above 10 µM, the “hERG IC20/TLR7 IC50” value is above 833.3 and the “hERG IC20/TLR8 IC50” value is above 294.1. For the same compound, the “hERG IC20/TLR9 IC50” value was above 137.0.
